{
  "source": "patent US20230085307A1",
  "about": "“PYRIDAZINONE COMPOUND AND HERBICIDE” (NISSAN CHEMICAL CORPORATION, priority 2019, published 2023)",
  "key": {"oval-leafed pondweed": {"test_system": "oval-leafed pondweed", "test": "Test Example 1: herbicidal activity, application before weed generation under submerged conditions (Table 16, symbol C)", "format": "in vivo, oval-leafed pondweed (Monochoria vaginalis)", "details": "amount of applied herbicide 320 g/ha", "in_short": "(§1)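 Emulsion formulation, water-diluted to set dose, was put onto the flooded surface (4 cm depth, alluvial soil) the same day weeds were sown and 2.5-leaf rice transplanted. After 3 weeks at 25-30 °C under glass, each species was rated 0 (≤5% kill) to 5 (≥90% kill).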"}, "velvetleaf [1]": {"test_system": "velvetleaf", "test": "Test Example 5: herbicidal effect by foliage application, plastic box (Table 20, symbol M)", "format": "in vivo, velvetleaf (Abutilon theophrasti)", "details": "320 g/ha, foliage application after 14-day growth, evaluated three weeks after application", "in_short": "(§2)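 Foliar spray test: emulsion formulation diluted in water to a set application rate, sprayed onto 14-day-old plants raised in diluvial soil at 25° C to 30° C under glass. Both herbicidal effect and crop effect rated visually three weeks later.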"}, "redroot pigweed [2]": {"test_system": "redroot pigweed", "test": "Test Example 4: herbicidal effect by soil treatment (Table 19, symbol N)", "format": "in vivo, redroot pigweed (Amaranthus retroflexus)", "details": "amount of applied herbicide 320 g/ha", "in_short": "(§3)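 Herbicidal effect was rated 3 weeks after treatment, using the scoring criteria of an earlier test. The compound, formulated as an emulsion and diluted in water to a set herbicide amount, had been sprayed uniformly on soil over freshly sown seeds. Growth took place in a greenhouse at 25° C. to 30° C.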"}, "lambsquarters [3]": {"test_system": "lambsquarters", "test": "Test Example 5: herbicidal effect by foliage application, plastic box (Table 20, symbol O)", "format": "in vivo, lambsquarters (Chenopodium album)", "details": "320 g/ha, foliage application after 14-day growth, evaluated three weeks after application", "in_short": "as §2"}, "southern crabgrass [4]": {"test_system": "southern crabgrass", "test": "Test Example 5: herbicidal effect by foliage application, plastic box (Table 20, symbol F)", "format": "in vivo, southern crabgrass (Digitaria ciliaris)", "details": "320 g/ha, foliage application after 14-day growth, evaluated three weeks after application", "in_short": "as §2"}, "barnyard grass [5]": {"test_system": "barnyard grass", "test": "Test Example 4: herbicidal effect by soil treatment (Table 19, symbol H)", "format": "in vivo, barnyard grass (Echinochloa crus-galli)", "details": "amount of applied herbicide 320 g/ha", "in_short": "as §3"}, "barnyard grass [6]": {"test_system": "barnyard grass", "test": "Test Example 5: herbicidal effect by foliage application, plastic box (Table 20, symbol H)", "format": "in vivo, barnyard grass (Echinochloa crus-galli)", "details": "320 g/ha, foliage application after 14-day growth, evaluated three weeks after application", "in_short": "as §2"}, "southern crabgrass [7]": {"test_system": "southern crabgrass", "test": "Test Example 4: herbicidal effect by soil treatment (Table 19, symbol F)", "format": "in vivo, southern crabgrass (Digitaria ciliaris)", "details": "amount of applied herbicide 320 g/ha", "in_short": "as §3"}, "blackgrass [8]": {"test_system": "blackgrass", "test": "Test Example 4: herbicidal effect by soil treatment (Table 19, symbol J)", "format": "in vivo, blackgrass (Alopecurus myosuroides)", "details": "amount of applied herbicide 320 g/ha", "in_short": "as §3"}, "windgrass [9]": {"test_system": "windgrass", "test": "Test Example 4: herbicidal effect by soil treatment (Table 19, symbol L)", "format": "in vivo, windgrass (Apera spica-venti)", "details": "amount of applied herbicide 320 g/ha", "in_short": "as §3"}, "late watergrass": {"test_system": "late watergrass", "test": "Test Example 1: herbicidal activity, application before weed generation under submerged conditions (Table 16, symbol A)", "format": "in vivo, late watergrass (Echinochloa oryzicola)", "details": "amount of applied herbicide 320 g/ha", "in_short": "as §1"}, "wild oat [10]": {"test_system": "wild oat", "test": "Test Example 5: herbicidal effect by foliage application, plastic box (Table 20, symbol I)", "format": "in vivo, wild oat (Avena fatua)", "details": "320 g/ha, foliage application after 14-day growth, evaluated three weeks after application", "in_short": "as §2"}, "Italian ryegrass [11]": {"test_system": "Italian ryegrass", "test": "Test Example 4: herbicidal effect by soil treatment (Table 19, symbol K)", "format": "in vivo, Italian ryegrass (Lolium multiflorum)", "details": "amount of applied herbicide 320 g/ha", "in_short": "as §3"}, "wild oat [12]": {"test_system": "wild oat", "test": "Test Example 4: herbicidal effect by soil treatment (Table 19, symbol I)", "format": "in vivo, wild oat (Avena fatua)", "details": "amount of applied herbicide 320 g/ha", "in_short": "as §3"}, "Italian ryegrass [13]": {"test_system": "Italian ryegrass", "test": "Test Example 5: herbicidal effect by foliage application, plastic box (Table 20, symbol K)", "format": "in vivo, Italian ryegrass (Lolium multiflorum)", "details": "320 g/ha, foliage application after 14-day growth, evaluated three weeks after application", "in_short": "as §2"}, "chickweed [14]": {"test_system": "chickweed", "test": "Test Example 4: herbicidal effect by soil treatment (Table 19, symbol P)", "format": "in vivo, common chickweed (Stellaria media)", "details": "amount of applied herbicide 320 g/ha", "in_short": "as §3"}, "velvetleaf [15]": {"test_system": "velvetleaf", "test": "Test Example 4: herbicidal effect by soil treatment (Table 19, symbol M)", "format": "in vivo, velvetleaf (Abutilon theophrasti)", "details": "amount of applied herbicide 320 g/ha", "in_short": "as §3"}, "redroot pigweed [16]": {"test_system": "redroot pigweed", "test": "Test Example 5: herbicidal effect by foliage application, plastic box (Table 20, symbol N)", "format": "in vivo, redroot pigweed (Amaranthus retroflexus)", "details": "320 g/ha, foliage application after 14-day growth, evaluated three weeks after application", "in_short": "as §2"}, "Japanese bulrush": {"test_system": "Japanese bulrush", "test": "Test Example 1: herbicidal activity, application before weed generation under submerged conditions (Table 16, symbol B)", "format": "in vivo, Japanese bulrush (Schoenoplectus juncoides)", "details": "amount of applied herbicide 320 g/ha", "in_short": "as §1"}, "green foxtail [17]": {"test_system": "green foxtail", "test": "Test Example 4: herbicidal effect by soil treatment (Table 19, symbol G)", "format": "in vivo, green foxtail (Setaria viridis)", "details": "amount of applied herbicide 320 g/ha", "in_short": "as §3"}, "green foxtail [18]": {"test_system": "green foxtail", "test": "Test Example 5: herbicidal effect by foliage application, plastic box (Table 20, symbol G)", "format": "in vivo, green foxtail (Setaria viridis)", "details": "320 g/ha, foliage application after 14-day growth, evaluated three weeks after application", "in_short": "as §2"}, "lambsquarters [19]": {"test_system": "lambsquarters", "test": "Test Example 4: herbicidal effect by soil treatment (Table 19, symbol O)", "format": "in vivo, lambsquarters (Chenopodium album)", "details": "amount of applied herbicide 320 g/ha", "in_short": "as §3"}, "chickweed [20]": {"test_system": "chickweed", "test": "Test Example 5: herbicidal effect by foliage application, plastic box (Table 20, symbol P)", "format": "in vivo, common chickweed (Stellaria media)", "details": "320 g/ha, foliage application after 14-day growth, evaluated three weeks after application", "in_short": "as §2"}, "persian speedwell [21]": {"test_system": "persian speedwell", "test": "Test Example 5: herbicidal effect by foliage application, plastic box (Table 20, symbol R)", "format": "in vivo, Persian speedwell (Veronica persica)", "details": "320 g/ha, foliage application after 14-day growth, evaluated three weeks after application", "in_short": "as §2"}, "windgrass [22]": {"test_system": "windgrass", "test": "Test Example 5: herbicidal effect by foliage application, plastic box (Table 20, symbol L)", "format": "in vivo, windgrass (Apera spica-venti)", "details": "320 g/ha, foliage application after 14-day growth, evaluated three weeks after application", "in_short": "as §2"}, "false cleavers": {"test_system": "false cleavers", "test": "Test Example 4: herbicidal effect by soil treatment (Table 19, symbol Q)", "format": "in vivo, false cleavers (Galium spurium)", "details": "amount of applied herbicide 320 g/ha", "in_short": "as §3"}, "persian speedwell [23]": {"test_system": "persian speedwell", "test": "Test Example 4: herbicidal effect by soil treatment (Table 19, symbol R)", "format": "in vivo, Persian speedwell (Veronica persica)", "details": "amount of applied herbicide 320 g/ha", "in_short": "as §3"}, "blackgrass [24]": {"test_system": "blackgrass", "test": "Test Example 5: herbicidal effect by foliage application, plastic box (Table 20, symbol J)", "format": "in vivo, blackgrass (Alopecurus myosuroides)", "details": "320 g/ha, foliage application after 14-day growth, evaluated three weeks after application", "in_short": "as §2"}},
  "data": [
    {"smiles": "Cc1nn(C)c(=O)c(-c2c(-c3ccc(C(C)C)cc3)sc3c(F)cccc23)c1O", "note": "[4-042]", "values": [
      {"measurement": "Herbicidal effect, C: oval-leafed pondweed", "setting": "oval-leafed pondweed", "value": "0 (Herbicidal rate of 5% or less (almost no effect))"},
      {"measurement": "herbicidal effect on M: velvetleaf (evaluation grade 0-5)", "setting": "velvetleaf [1]", "value": "5 (Herbicidal rate of 90% or more (almost completely withered))"},
      {"measurement": "Herbicidal effect by soil treatment, N: redroot pigweed", "setting": "redroot pigweed [2]", "value": "4 (Herbicidal rate of 70% or more and less than 90%)"},
      {"measurement": "herbicidal effect on O: lambsquarters (evaluation grade 0-5)", "setting": "lambsquarters [3]", "value": "4 (Herbicidal rate of 70% or more and less than 90%)"},
      {"measurement": "herbicidal effect on F: southern crabgrass (evaluation grade 0-5)", "setting": "southern crabgrass [4]", "value": "1 (Herbicidal rate of 5% or more and less than 20%)"},
      {"measurement": "Herbicidal effect by soil treatment, H: barnyard grass", "setting": "barnyard grass [5]", "value": "1 (Herbicidal rate of 5% or more and less than 20%)"},
      {"measurement": "herbicidal effect on H: barnyard grass (evaluation grade 0-5)", "setting": "barnyard grass [6]", "value": "5 (Herbicidal rate of 90% or more (almost completely withered))"},
      {"measurement": "Herbicidal effect by soil treatment, F: southern crabgrass", "setting": "southern crabgrass [7]", "value": "0 (Herbicidal rate of 5% or less (almost no effect))"},
      {"measurement": "Herbicidal effect by soil treatment, J: blackgrass", "setting": "blackgrass [8]", "value": "0 (Herbicidal rate of 5% or less (almost no effect))"},
      {"measurement": "Herbicidal effect by soil treatment, L: windgrass", "setting": "windgrass [9]", "value": "0 (Herbicidal rate of 5% or less (almost no effect))"},
      {"measurement": "Herbicidal effect, A: late watergrass", "setting": "late watergrass", "value": "3 (Herbicidal rate of 40% or more and less than 70%)"},
      {"measurement": "herbicidal effect on I: wild oat (evaluation grade 0-5)", "setting": "wild oat [10]", "value": "0 (Herbicidal rate of 5% or less (almost no effect))"},
      {"measurement": "Herbicidal effect by soil treatment, K: Italian ryegrass", "setting": "Italian ryegrass [11]", "value": "0 (Herbicidal rate of 5% or less (almost no effect))"},
      {"measurement": "Herbicidal effect by soil treatment, I: wild oat", "setting": "wild oat [12]", "value": "0 (Herbicidal rate of 5% or less (almost no effect))"},
      {"measurement": "herbicidal effect on K: Italian ryegrass (evaluation grade 0-5)", "setting": "Italian ryegrass [13]", "value": "3 (Herbicidal rate of 40% or more and less than 70%)"},
      {"measurement": "Herbicidal effect by soil treatment, P: chickweed", "setting": "chickweed [14]", "value": "5 (Herbicidal rate of 90% or more (almost completely withered))"},
      {"measurement": "Herbicidal effect by soil treatment, M: velvetleaf", "setting": "velvetleaf [15]", "value": "1 (Herbicidal rate of 5% or more and less than 20%)"},
      {"measurement": "herbicidal effect on N: redroot pigweed (evaluation grade 0-5)", "setting": "redroot pigweed [16]", "value": "5 (Herbicidal rate of 90% or more (almost completely withered))"},
      {"measurement": "Herbicidal effect, B: Japanese bulrush", "setting": "Japanese bulrush", "value": "3 (Herbicidal rate of 40% or more and less than 70%)"},
      {"measurement": "Herbicidal effect by soil treatment, G: green foxtail", "setting": "green foxtail [17]", "value": "0 (Herbicidal rate of 5% or less (almost no effect))"},
      {"measurement": "herbicidal effect on G: green foxtail (evaluation grade 0-5)", "setting": "green foxtail [18]", "value": "4 (Herbicidal rate of 70% or more and less than 90%)"},
      {"measurement": "Herbicidal effect by soil treatment, O: lambsquarters", "setting": "lambsquarters [19]", "value": "3 (Herbicidal rate of 40% or more and less than 70%)"},
      {"measurement": "herbicidal effect on P: chickweed (evaluation grade 0-5)", "setting": "chickweed [20]", "value": "5 (Herbicidal rate of 90% or more (almost completely withered))"},
      {"measurement": "herbicidal effect on R: persian speedwell (evaluation grade 0-5)", "setting": "persian speedwell [21]", "value": "5 (Herbicidal rate of 90% or more (almost completely withered))"},
      {"measurement": "herbicidal effect on L: windgrass (evaluation grade 0-5)", "setting": "windgrass [22]", "value": "0 (Herbicidal rate of 5% or less (almost no effect))"},
      {"measurement": "Herbicidal effect by soil treatment, Q: false cleavers", "setting": "false cleavers", "value": "0 (Herbicidal rate of 5% or less (almost no effect))"},
      {"measurement": "Herbicidal effect by soil treatment, R: persian speedwell", "setting": "persian speedwell [23]", "value": "3 (Herbicidal rate of 40% or more and less than 70%)"},
      {"measurement": "herbicidal effect on J: blackgrass (evaluation grade 0-5)", "setting": "blackgrass [24]", "value": "0 (Herbicidal rate of 5% or less (almost no effect))"}
    ]}
  ]
}
